According to US8614223B2, “Pyrimidine hydroxy amide compounds as protein deacetylase inhibitors and methods of use thereof” (Acetylon Pharmaceuticals, Inc., priority 2010, dated 2013):

Experiments:
HDAC6 = HDAC6 (Homo sapiens (Human), UniProt Q9UBN7); settings: read-out: HDAC6 IC50
HDAC1 = HDAC1 (Homo sapiens (Human), UniProt Q13547); assay: HDAC enzyme assay, HDAC1; settings: for HDAC1 fold over HDAC6 IC50 (selectivity for HDAC6): ratio HDAC1/HDAC6; for IC50: read-out: HDAC1 IC50
HDAC2 = HDAC2 (Homo sapiens (Human), UniProt Q92769); assay: HDAC enzyme assay, HDAC2; settings: for HDAC2 fold over HDAC6 IC50 (selectivity for HDAC6): ratio HDAC2/HDAC6; for IC50: read-out: HDAC2 IC50
HDAC3 = HDAC3 (Homo sapiens (Human), UniProt O15379); assay: HDAC enzyme assay, HDAC3; settings: for HDAC3 fold over HDAC6 IC50 (selectivity for HDAC6): ratio HDAC3/HDAC6; for IC50: read-out: HDAC3 IC50
Chain of HDAC3 (O15379 whole entry): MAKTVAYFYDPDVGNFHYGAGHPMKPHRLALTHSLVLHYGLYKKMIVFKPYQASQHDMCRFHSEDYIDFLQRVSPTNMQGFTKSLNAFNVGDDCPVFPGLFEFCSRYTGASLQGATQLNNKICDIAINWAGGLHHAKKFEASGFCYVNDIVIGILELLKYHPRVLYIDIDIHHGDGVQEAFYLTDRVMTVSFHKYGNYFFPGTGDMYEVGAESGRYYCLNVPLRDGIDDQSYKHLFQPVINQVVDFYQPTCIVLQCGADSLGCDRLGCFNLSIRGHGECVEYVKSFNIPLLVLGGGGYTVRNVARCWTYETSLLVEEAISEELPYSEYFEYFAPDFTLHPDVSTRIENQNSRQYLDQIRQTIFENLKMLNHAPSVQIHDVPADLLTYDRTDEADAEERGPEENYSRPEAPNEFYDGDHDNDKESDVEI
Chain of HDAC3 (Q9Y618 395-489 partner): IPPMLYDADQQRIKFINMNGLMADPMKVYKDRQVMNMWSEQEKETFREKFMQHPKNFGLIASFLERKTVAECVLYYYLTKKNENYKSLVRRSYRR

Chain of HDAC2 (Q92769 whole entry): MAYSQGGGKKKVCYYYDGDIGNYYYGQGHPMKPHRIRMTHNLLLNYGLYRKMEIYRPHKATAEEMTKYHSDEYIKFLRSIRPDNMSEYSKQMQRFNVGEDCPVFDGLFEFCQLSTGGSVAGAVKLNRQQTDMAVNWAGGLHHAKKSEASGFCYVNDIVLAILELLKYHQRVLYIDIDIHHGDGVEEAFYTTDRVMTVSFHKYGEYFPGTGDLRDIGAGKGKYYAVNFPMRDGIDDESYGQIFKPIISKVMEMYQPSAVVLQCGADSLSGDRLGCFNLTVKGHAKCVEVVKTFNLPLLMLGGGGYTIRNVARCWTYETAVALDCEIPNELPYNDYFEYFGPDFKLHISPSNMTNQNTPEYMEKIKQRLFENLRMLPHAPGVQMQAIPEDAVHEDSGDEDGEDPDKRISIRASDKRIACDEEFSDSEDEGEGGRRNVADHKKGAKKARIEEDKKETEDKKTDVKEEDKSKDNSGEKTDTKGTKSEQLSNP
Chain of HDAC6 (Q9UBN7 whole entry): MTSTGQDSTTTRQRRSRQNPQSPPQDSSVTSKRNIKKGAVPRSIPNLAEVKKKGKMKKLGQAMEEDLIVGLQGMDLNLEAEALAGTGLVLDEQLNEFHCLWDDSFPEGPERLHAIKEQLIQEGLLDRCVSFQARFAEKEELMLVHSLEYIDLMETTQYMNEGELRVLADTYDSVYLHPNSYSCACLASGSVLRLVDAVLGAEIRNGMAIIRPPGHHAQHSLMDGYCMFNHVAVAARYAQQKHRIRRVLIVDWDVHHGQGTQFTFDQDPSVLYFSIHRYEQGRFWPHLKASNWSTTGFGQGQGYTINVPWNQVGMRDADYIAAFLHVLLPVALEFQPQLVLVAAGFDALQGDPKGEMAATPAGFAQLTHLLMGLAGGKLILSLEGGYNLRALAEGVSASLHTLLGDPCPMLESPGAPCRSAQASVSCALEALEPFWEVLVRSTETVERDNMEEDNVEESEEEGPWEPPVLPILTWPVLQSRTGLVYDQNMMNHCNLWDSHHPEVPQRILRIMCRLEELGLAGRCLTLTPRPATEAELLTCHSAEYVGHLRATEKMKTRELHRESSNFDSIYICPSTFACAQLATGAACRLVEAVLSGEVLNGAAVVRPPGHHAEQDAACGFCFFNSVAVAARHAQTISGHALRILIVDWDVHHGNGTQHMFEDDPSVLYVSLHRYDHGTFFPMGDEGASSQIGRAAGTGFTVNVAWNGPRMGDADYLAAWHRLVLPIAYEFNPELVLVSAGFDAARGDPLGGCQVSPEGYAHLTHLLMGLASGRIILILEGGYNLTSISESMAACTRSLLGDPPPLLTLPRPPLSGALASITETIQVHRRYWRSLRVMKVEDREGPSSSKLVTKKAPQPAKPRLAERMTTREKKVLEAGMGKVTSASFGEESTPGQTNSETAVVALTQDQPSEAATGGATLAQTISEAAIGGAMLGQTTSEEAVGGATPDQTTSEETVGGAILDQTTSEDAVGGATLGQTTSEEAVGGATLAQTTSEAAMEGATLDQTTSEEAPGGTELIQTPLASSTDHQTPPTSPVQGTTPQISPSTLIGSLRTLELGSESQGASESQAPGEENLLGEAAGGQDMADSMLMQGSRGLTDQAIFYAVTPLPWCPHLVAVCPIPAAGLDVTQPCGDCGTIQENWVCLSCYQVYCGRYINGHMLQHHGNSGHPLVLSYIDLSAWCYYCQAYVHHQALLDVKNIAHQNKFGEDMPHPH
Chain of HDAC1 (Q13547 whole entry): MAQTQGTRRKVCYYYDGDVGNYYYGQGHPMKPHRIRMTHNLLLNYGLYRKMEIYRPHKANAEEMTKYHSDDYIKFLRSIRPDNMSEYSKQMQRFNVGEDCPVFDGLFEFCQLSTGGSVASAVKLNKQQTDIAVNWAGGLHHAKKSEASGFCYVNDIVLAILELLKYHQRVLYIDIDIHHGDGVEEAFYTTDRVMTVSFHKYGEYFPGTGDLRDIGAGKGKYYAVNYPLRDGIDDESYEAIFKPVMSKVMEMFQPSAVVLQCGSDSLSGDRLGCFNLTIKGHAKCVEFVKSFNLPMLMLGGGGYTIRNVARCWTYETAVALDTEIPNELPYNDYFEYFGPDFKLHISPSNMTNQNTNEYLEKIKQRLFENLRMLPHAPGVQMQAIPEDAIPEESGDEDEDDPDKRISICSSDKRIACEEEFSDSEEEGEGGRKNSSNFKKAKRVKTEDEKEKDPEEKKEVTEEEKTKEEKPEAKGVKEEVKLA

| SMILES | IC50 (HDAC6) [nM] | HDAC1 fold over HDAC6 IC50 (selectivity for HDAC6) (HDAC1) | IC50 (HDAC1) [nM] | HDAC2 fold over HDAC6 IC50 (selectivity for HDAC6) (HDAC2) | IC50 (HDAC2) [nM] | HDAC3 fold over HDAC6 IC50 (selectivity for HDAC6) (HDAC3) | IC50 (HDAC3) [nM] |
| --- | --- | --- | --- | --- | --- | --- | --- |
| O=C(NO)c1cnc(NC2(c3cc(C(F)(F)F)cc(C(F)(F)F)c3)CC2)nc1 [Compound 145] | 6 | (18.1x) | 104 | (23.5x) | 135 | (66.6x) | 384 |
| COc1ccc(Cl)cc1C1(Nc2ncc(C(=O)NO)cn2)CC1 [Compound 139] | 4 | (90.9x) | 386 | (112.8x) | 479 | (184x) | 782 |
| O=C(NO)c1cnc(Nc2c(F)c(F)cc(F)c2F)nc1 [Compound 16] | 21 | (15.7x) | 332 | (18.1x) | 384 | (28.3x) | 600 |
| O=C(NO)c1cnc(NC2(c3cccc(F)c3)CCOCC2)nc1 [Compound 149] | 4 | (80.1x) | 339 | (78x) | 330 | (312.9x) | 1320 |
| Cc1cc(C(F)(F)F)cc(C2(Nc3ncc(C(=O)NO)cn3)CC2)c1 [Compound 147] | 3 | (18.2x) | 64 | (20.9x) | 73 | (54x) | 189 |
| O=C(NO)c1cnc(NCc2ccccc2-c2ccccc2)nc1 [Compound 55] | 8 | (60.2x) | 460 | (76.8x) | 587 | (82.6x) | 631 |
| Cc1cccc(C)c1CNc1ncc(C(=O)NO)cn1 [Compound 54] | 21 | (64.4x) | 1370 | (98.9x) | 2100 | (73.7x) | 1570 |
| O=C(NO)c1cnc(NC2(c3ccccc3C(F)(F)F)CC2)nc1 [Compound 91] | 2 | (72.3x) | 160 | (130.2x) | 288 | (169.4x) | 374 |
| COc1ccc(C2(Nc3ncc(C(=O)NO)cn3)CCCCC2)cc1 [Compound 122] | 20 | (44.8x) | 893 | (45x) | 898 | (197.8x) | 3940 |
| O=C(NO)c1cnc(NCc2ccc(-c3ccccc3)cc2)nc1 [Compound 107] | 2 | (2.7x) | 60 | (3.7x) | 9 | (8x) | 19 |
| O=C(NO)c1cnc(NC2(c3ccc(F)cc3)CCCC2)nc1 [Compound 148] | 3 | (182.9x) | 583 | (193.1x) | 615 | (677.2x) | 2160 |
| O=C(NO)c1cnc(NCc2cccs2)nc1 [Compound 105] | 4 | (54.5x) | 214 | (92.1x) | 361 | (92x) | 361 |
| O=C(NO)c1cnc(NCc2cccc(C(F)(F)F)c2)nc1 [Compound 40] | 2 | (19.8x) | 38 | (28.7x) | 56 | (36.2x) | 70 |
| O=C(NO)c1cnc(NC2(c3ccc(F)cc3)CC2)nc1 [Compound 81] | 3 | (18.3x) | 47 | (30.2x) | 78 | (46.4x) | 120 |
| O=C(NO)c1cnc(NC(c2ccc(F)cc2)c2ccc(F)cc2)nc1 [Compound 89] | 3 | (64.4x) | 223 | (78.1x) | 270 | (158.8x) | 549 |
| O=C(NO)c1cnc(NC23CC4CC(CC(C4)C2)C3)nc1 [Compound 58] | 9 | (60.8x) | 552 | (77.2x) | 701 | (119.5x) | 1080 |
| CC(C)(Nc1ncc(C(=O)NO)cn1)c1ccc(C(F)(F)F)cc1 [Compound 74] | 6 | (147.5x) | 889 | (168.4x) | 1020 | (394.2x) | 2380 |
| O=C(NO)c1cnc(NCc2ccccn2)nc1 [Compound 108] | 5 | (42.1x) | 219 | (60.3x) | 313 | (68.3x) | 355 |
| COc1ccccc1CNc1ncc(C(=O)NO)cn1 [Compound 45] | 4 | (106.9x) | 377 | (148.5x) | 523 | (143.4x) | 506 |
| O=C(NO)c1cnc(Nc2ccc([N+](=O)[O-])c(C(F)(F)F)c2)nc1 [Compound 10] | 10 | (32.6x) | 329 | (62.5x) | 631 | (42.6x) | 430 |
| O=C(NO)c1cnc(NC2(c3cccc(F)c3)CCCC2)nc1 [Compound 151] | 3 | (176.6x) | 584 | (143.8x) | 476 | (414.9x) | 1370 |
| O=C(NO)c1cnc(NC2(c3ccccc3)CCOCC2)nc1 [Compound 95] | 3 | (176.7x) | 586 | (217.7x) | 722 | (685x) | 2270 |
| CC(C)(Nc1ncc(C(=O)NO)cn1)c1ccc(Cl)cc1F [Compound 83] | 3 | (139.2x) | 447 | (140.9x) | 452 | (289x) | 928 |
| O=C(NO)c1cnc(Nc2ccccc2)nc1 [Compound 1, N-hydroxy-2-(phenylamino)pyrimidine-5-carboxamide] | 7 | 20x | – | 30x | – | 27x | – |
| CC(C)(Nc1ncc(C(=O)NO)cn1)c1ccc(C(F)(F)F)cc1F [Compound 86] | 13 | (60.3x) | 788 | (98.9x) | 1290 | (221.2x) | 2890 |
| O=C(NO)c1cnc(Nc2cccc(-c3ccccc3)c2)nc1 [Compound 28] | 4 | (30.7x) | 111 | (51.5x) | 187 | (50.1x) | 181 |
| O=C(NO)c1cnc(NC2(c3ccc4c(c3)OCO4)CC2)nc1 [Compound 128] | 2 | (8.1x) | 16 | (8.9x) | 17 | (24.8x) | 49 |
| CC(C)(Nc1ncc(C(=O)NO)cn1)c1cc(C(F)(F)F)cc(C(F)(F)F)c1 [Compound 92] | 33 | (41.3x) | 1360 | (68x) | 2240 | (134.4x) | 4420 |
| O=C(NO)c1cnc(NCc2c(CO)cccc2CO)nc1 [Compound 51] | 11 | (41.2x) | 468 | (55x) | 624 | (33.6x) | 382 |
| O=C(NO)c1cnc(Nc2cc(Cl)cc(OC(F)(F)F)c2)nc1 [Compound 27] | 7 | (63.5x) | 417 | (106.6x) | 700 | (113.5x) | 745 |
